According to ChEMBL document CHEMBL2029212, “Discovery of 1,4-disubstituted 3-cyano-2-pyridones: a new class of positive allosteric modulators of the metabotropic glutamate 2 receptor” (J Med Chem, 2012):

What was measured:
[1] = Drug metabolism in rat liver microsomes at 5 uM after 15 mins; assay type: ADME, Microsome; conditions: read-out: Drug metabolism
[2] = Drug metabolism in human liver microsomes at 5 uM after 15 mins; assay type: ADME, Microsome; conditions: read-out: Drug metabolism
[3] = target: T1, Metabotropic glutamate receptor 2 (Homo sapiens, UniProt Q14416); test: Positive allosteric modulation of human mGlu2 receptor expressed in CHO cells assessed as glutamate-induced [35S]GTPgammaS binding after 30 mins by liquid scintillation counting; assay type: functional, cell-based
Target sequence in this assay (Q14416 whole entry): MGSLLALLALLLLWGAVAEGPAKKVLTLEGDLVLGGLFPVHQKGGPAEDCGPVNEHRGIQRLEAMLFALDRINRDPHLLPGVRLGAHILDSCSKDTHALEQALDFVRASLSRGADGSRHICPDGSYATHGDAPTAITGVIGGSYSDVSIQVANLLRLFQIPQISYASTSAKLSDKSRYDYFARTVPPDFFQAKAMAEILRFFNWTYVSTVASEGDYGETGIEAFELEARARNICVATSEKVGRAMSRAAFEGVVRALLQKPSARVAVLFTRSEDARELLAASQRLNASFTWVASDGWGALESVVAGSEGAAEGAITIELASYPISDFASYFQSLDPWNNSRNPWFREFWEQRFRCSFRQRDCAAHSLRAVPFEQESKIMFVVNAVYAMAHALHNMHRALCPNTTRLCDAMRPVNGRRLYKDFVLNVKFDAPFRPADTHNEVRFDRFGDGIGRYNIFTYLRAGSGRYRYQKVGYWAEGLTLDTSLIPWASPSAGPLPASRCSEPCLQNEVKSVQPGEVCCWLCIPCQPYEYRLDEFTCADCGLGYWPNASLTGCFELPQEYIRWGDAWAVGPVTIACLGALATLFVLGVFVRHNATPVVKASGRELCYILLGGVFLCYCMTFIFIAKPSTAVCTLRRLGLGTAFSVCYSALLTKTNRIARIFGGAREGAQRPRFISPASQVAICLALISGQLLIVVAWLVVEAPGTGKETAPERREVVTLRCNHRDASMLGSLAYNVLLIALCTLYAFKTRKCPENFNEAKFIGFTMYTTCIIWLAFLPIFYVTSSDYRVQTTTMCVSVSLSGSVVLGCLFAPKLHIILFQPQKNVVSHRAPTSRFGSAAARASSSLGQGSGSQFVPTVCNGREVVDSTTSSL

[4] = target: T1, Metabotropic glutamate receptor 2; test: Positive allosteric modulation of human mGlu2 receptor expressed in CHO cells assessed as glutamate-induced [35S]GTPgammaS binding after 30 mins by liquid scintillation counting relative to glutamate; assay type: functional, cell-based
Target sequence in this assay (Q14416 19-872 limits assumed): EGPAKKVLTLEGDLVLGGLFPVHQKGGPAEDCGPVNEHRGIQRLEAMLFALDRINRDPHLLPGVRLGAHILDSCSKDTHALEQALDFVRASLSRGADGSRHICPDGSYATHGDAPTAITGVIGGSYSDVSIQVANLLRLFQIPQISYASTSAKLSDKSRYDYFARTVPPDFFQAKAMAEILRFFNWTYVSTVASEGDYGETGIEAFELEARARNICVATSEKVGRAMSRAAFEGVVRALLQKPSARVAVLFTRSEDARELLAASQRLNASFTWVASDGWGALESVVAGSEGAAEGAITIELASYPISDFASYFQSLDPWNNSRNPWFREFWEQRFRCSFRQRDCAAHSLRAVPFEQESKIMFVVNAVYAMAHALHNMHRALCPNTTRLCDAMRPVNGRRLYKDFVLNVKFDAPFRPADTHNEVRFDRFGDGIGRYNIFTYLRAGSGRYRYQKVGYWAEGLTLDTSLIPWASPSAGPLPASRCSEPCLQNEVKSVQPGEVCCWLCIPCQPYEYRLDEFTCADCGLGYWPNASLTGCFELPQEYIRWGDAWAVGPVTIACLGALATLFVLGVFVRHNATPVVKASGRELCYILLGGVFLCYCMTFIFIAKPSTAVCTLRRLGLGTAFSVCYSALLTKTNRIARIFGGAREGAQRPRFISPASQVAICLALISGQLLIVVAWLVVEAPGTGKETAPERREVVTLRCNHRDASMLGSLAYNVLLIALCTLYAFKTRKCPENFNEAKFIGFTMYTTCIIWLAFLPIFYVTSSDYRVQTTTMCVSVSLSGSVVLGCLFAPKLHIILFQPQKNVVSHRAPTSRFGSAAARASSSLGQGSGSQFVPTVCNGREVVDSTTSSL

[5] = Ratio of drug level in brain to plasma in Swiss mouse at 10 mg/kg, sc after 1 hr; assay type: ADME, organism-based; parameters: dose 10 mg/kg, route subcutaneous; conditions: read-out: BPR
hERG = hERG (Homo sapiens, UniProt Q12809); test: Inhibition of human ERG expressed in HEK293 cells assessed as whole cell current at 3 uM after 5 mins by automated patch-clamp assay relative to control; assay type: cell-based; conditions: HEK293 cells expressing hERG
Chain of hERG (Q12809 whole entry): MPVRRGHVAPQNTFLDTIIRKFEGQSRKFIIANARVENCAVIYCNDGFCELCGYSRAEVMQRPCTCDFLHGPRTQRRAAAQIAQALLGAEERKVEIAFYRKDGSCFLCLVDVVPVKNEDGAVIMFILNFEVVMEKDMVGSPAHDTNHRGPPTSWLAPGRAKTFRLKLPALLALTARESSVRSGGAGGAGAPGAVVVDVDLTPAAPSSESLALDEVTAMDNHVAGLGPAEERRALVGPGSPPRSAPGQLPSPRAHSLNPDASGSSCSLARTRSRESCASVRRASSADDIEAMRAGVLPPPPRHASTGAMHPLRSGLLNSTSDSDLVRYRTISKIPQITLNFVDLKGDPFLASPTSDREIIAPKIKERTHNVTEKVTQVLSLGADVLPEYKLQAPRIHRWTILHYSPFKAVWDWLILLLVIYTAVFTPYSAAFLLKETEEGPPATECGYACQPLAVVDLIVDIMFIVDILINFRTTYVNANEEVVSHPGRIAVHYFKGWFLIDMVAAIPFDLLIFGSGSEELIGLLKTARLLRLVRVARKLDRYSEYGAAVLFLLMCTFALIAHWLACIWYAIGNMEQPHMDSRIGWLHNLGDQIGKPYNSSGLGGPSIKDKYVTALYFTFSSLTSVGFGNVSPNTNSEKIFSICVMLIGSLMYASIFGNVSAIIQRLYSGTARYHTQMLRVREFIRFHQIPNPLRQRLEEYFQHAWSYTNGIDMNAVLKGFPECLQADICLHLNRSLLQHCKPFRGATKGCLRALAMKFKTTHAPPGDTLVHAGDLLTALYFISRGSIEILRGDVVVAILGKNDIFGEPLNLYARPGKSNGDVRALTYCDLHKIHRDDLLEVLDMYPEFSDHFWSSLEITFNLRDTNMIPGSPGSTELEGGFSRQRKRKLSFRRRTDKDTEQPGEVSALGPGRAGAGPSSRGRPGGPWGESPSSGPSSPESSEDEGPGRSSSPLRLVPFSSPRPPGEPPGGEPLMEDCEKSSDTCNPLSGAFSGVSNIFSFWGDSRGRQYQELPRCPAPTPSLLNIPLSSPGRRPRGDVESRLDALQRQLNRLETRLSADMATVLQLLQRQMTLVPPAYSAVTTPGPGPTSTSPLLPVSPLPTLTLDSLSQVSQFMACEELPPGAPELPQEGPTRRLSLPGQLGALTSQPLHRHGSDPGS

[6] = Drug level in Swiss mouse brain at 10 mg/kg, sc after 0.5 hrs; assay type: ADME, organism-based; parameters: dose 10 mg/kg, route subcutaneous; conditions: read-out: Drug uptake
[7] = Drug level in Swiss mouse brain at 10 mg/kg, sc after 1.5 hrs; assay type: ADME, organism-based; parameters: dose 10 mg/kg, route subcutaneous; conditions: read-out: Drug uptake
[8] = Drug level in Swiss mouse brain at 10 mg/kg, sc after 1 hr; assay type: ADME, organism-based; parameters: dose 10 mg/kg, route subcutaneous; conditions: read-out: Drug uptake

| SMILES | metabolised at 0.25 h, 5 µM [1] | metabolised at 0.25 h, 5 µM [2] | EC50 [3] | Emax [4] | Kp at 1 h [5] | concentration at 0.5 h [6] | concentration at 1.5 h [7] | concentration at 1 h [8] | inhibition at 5 min, 3 µM (hERG) |
| --- | --- | --- | --- | --- | --- | --- | --- | --- | --- |
| Cc1ccc(Oc2ccc(-c3ccn(CCC(C)C)c(=O)c3C#N)cc2)c(C)n1 | 49% | 59% | 0.1 µM | 246% | – | – | – | – | – |
| COc1ccc(-c2ccn(CCC(C)C)c(=O)c2C#N)cc1F | – | 35% | 1.17 µM | 160% | – | – | – | – | – |
| CCCCn1ccc(-c2ccc(Oc3ccnc(C)c3)cc2Cl)c(C#N)c1=O | 47% | 34% | 0.933 µM | 187% | – | – | – | – | – |
| CC(C)CCn1ccc(-c2ccc(N3CCOCC3)cc2)c(C#N)c1=O | 48% | 38% | 2.04 µM | 236% | – | – | – | – | – |
| CC(C)CCn1ccc(-c2ccc(OCC3CC3)cc2)c(C#N)c1=O | 16% | 17% | 0.29 µM | 192% | – | – | – | – | – |
| COc1ccccc1-c1ccn(CCC(C)C)c(=O)c1C#N | – | 38% | > 10 µM | 120% | – | – | – | – | – |
| CC(C)CCn1ccc(-c2ccc(OC3CCOCC3)c(Cl)c2)c(C#N)c1=O | 54% | 36% | 0.186 µM | 197% | – | – | – | – | – |
| CNc1ccc(-c2ccn(CCC(C)C)c(=O)c2C#N)cc1 | – | – | 0.46 µM | 186% | – | – | – | – | – |
| CC(C)CCn1ccc(-c2ccc(OC3CCCC3)c(Cl)c2)c(C#N)c1=O | – | – | 0.1 µM | 199% | – | – | – | – | – |
| CCCCn1ccc(-c2ccc(Oc3ccnc(C)c3)c(Cl)c2)c(C#N)c1=O | 51% | 35% | 0.166 µM | 245% | – | – | – | – | – |
| Cc1cc(Oc2ccc(-c3ccn(CC4CC4)c(=O)c3C#N)cc2)ccn1 | 19% | 9% | 0.832 µM | 199% | – | – | – | – | – |
| CCCCn1ccc(-c2ccc(Oc3cccnc3C)c(Cl)c2)c(C#N)c1=O | 60% | 29% | 0.1 µM | 236% | – | – | – | – | 56% |

Continued, in another order:

| metabolised at 0.25 h, 5 µM [1] | metabolised at 0.25 h, 5 µM [2] | EC50 [3] | Emax [4] | Kp at 1 h [5] | concentration at 0.5 h [6] | concentration at 1.5 h [7] | concentration at 1 h [8] | SMILES | inhibition at 5 min, 3 µM (hERG) |
| --- | --- | --- | --- | --- | --- | --- | --- | --- | --- |
| 47% | 42% | 0.174 µM | 247% | – | – | – | – | CC(C)CCn1ccc(-c2ccc(NC3CCOCC3)c(Cl)c2)c(C#N)c1=O | – |
| 27% | 25% | 0.064 µM | 196% | 0.1 | 750 ng/g | 240 ng/g | 357 ng/g | Cc1ccc(Oc2ccc(-c3ccn(CC4CC4)c(=O)c3C#N)cc2Cl)c(C)n1 | 89% |
| 50% | 31% | – | 232% | – | – | – | – | CCCCn1ccc(-c2ccc(Oc3ccnc(C)c3)cc2F)c(C#N)c1=O | 52% |
| 22% | 37% | 0.23 µM | 180% | – | – | – | – | Cc1ncccc1Oc1ccc(-c2ccn(CC3CC3)c(=O)c2C#N)cc1Cl | 75% |
| 60% | 51% | 0.138 µM | 239% | – | – | – | – | CCCCn1ccc(-c2ccc(Oc3ccc(C)nc3C)cc2)c(C#N)c1=O | – |
